The values below come from PMC6538516 (Journal of Veterinary Science, 2019).

The conditions of data set [1]: humans; ref 14 (Wijnands et al.); cited from earlier work.
For another data set, the system named is CYP1A. The settings on record: hepatic microsomes from Beagles; ref 13 (Regmi et al.); cited from earlier work.
Data set [2] can be described thus: Pharmacokinetics of p-acetaminophen in Bactrian camels, substrate only. The format is in vivo, Bactrian camel. Particulars: Group 1, substrate only, 4 mg/kg intramuscular.
A further data set has as its system CYP1A enzyme. The class given is in vivo, Bactrian camel. The settings on record: Group 2, inhibitor (lomefloxacin) + substrate; p-acetaminophen 4 mg/kg intramuscular.
For data set [3] the following is noted: p-acetaminophen injected into porcine animals; ref 7 (Qiu et al.); cited from earlier work.
The conditions of data set [4]: healthy cattle, oral administration; ref 8 (Sawaguchi et al.); cited from earlier work.
The conditions of data set [5]: rats, intramuscular injection; ref 9 (Yamasaki et al.); cited from earlier work.

Like-named read-outs stand apart in the source and are kept apart here.

`CCn1cc(C(=O)O)c(=O)c2cc(F)c(N3CCNCC3)nc21` [enoxacin]: the “effect on total body clearance of theophylline” value in data set [1] is listed as “significantly decreased”.

For `CCN1CCN(c2cc3c(cc2F)c(=O)c(C(=O)O)cn3C2CC2)CC1` [enrofloxacin], the CYP1A-inhibiting effect result in the data set with CYP1A is listed as “inhibited CYP1A in a non-competitive manner”.

In the case of `CCn1cc(C(=O)O)c(=O)c2cc(F)c(N3CCNCC3)cc21` [norfloxacin], in the data set on CYP1A, the CYP1A-inhibiting effect entry is given as “inhibited CYP1A in a non-competitive manner”.

For the compound `CC1COc2c(N3CCN(C)CC3)c(F)cc3c(=O)c(C(=O)O)cn1c23` (centres unmarked) [ofloxacin], the CYP1A-inhibiting effect result in the data set with CYP1A was “inhibited CYP1A in a non-competitive manner”.

Regarding `C[C@@H]1CN(c2c(F)c(F)c3c(=O)c(C(=O)O)cn(C4CC4)c3c2F)C[C@H](C)N1` [orbifloxacin], the CYP1A-inhibiting effect entry with CYP1A is given as “inhibited CYP1A in a non-competitive manner”.

A word on the Cmax: it is the highest concentration seen after dosing. A word on the Tmax: it is the time from dosing to the highest level. For orientation: MRT means a mean duration of stay, worked out from the concentration-time curve. As to `CC(=O)Nc1ccc(O)cc1` [p-acetaminophen], in data set [2], the “Vd (volume of distribution under steady-state)” value is 4,416.8 ± 138.23 mL/kg. In addition, in data set [2] (plasma), the AUC0-t amounted to 5730 ± 310 ng·h/mL, the “AUC0-∞” value worked out at 6010 ± 630 ng·h/mL, the Cmax was 960 ± 430 ng/mL and the Tmax is 1.70 ± 0.51 h. For the same compound, in the data set on CYP1A enzyme, the AUC0-t was 8880 ± 230 ng·h/mL, the “AUC0-∞” value turned out to be 9150 ± 630 ng·h/mL, the Cmax came out at 1220 ± 660 ng/mL and the Tmax is given as 0.833 ± 0.37 h. The “Vd (volume of distribution under steady-state)” value in the data set with CYP1A enzyme was 3,934.0 ± 90.03 mL/kg. In data set [3], the AUC0-t is 23950 ± 6980 ng·h/mL, the T1/2 was 1.76 ± 0.91 h and the Tmax is listed as 0.41 ± 0.13 h. Further, in data set [4], the MRT is 4.70 ± 0.93 h, the T1/2 was 2.41 ± 0.58 h and the Tmax is listed as 1.40 ± 0.55 h. In data set [5], the MRT is listed as 0.40 ± 0.03 h and the T1/2 is 0.30 ± 0.02 h.
